Values of other authors as cited in patent US20240344094A1, “METHODS AND COMPOSITIONS USEFUL FOR THE PRODUCTION OF OLEFINIC ESTER” (THE REGENTS OF THE UNIVERSITY OF CALIFORNIA, priority 2021, published 2024).

Structure (SMILES) | solubility in water (20° in water) | solubility limit in water (water) [µg/mL]
C=C(C)CCO [Isoprenol, 3-methyl-3-buten-1-ol] | about 90 g/L | 
CC(=O)OCCC(C)C [isoamyl acetate] |  | ~10000
